Results taken from ChEMBL document CHEMBL1909046, “DrugMatrix in vitro pharmacology data”.

Columns and labels:
Progesterone receptor = molecular target: T1, Progesterone receptor (Bos taurus, UniProt Q690N0); assay: DRUGMATRIX: Progesterone radioligand binding (ligand: [3H] R-5020); format: tissue-based, Uterus; settings: Not Active = under 50% inhibition at 10 µM
T1 sequence (Q690N0 whole entry): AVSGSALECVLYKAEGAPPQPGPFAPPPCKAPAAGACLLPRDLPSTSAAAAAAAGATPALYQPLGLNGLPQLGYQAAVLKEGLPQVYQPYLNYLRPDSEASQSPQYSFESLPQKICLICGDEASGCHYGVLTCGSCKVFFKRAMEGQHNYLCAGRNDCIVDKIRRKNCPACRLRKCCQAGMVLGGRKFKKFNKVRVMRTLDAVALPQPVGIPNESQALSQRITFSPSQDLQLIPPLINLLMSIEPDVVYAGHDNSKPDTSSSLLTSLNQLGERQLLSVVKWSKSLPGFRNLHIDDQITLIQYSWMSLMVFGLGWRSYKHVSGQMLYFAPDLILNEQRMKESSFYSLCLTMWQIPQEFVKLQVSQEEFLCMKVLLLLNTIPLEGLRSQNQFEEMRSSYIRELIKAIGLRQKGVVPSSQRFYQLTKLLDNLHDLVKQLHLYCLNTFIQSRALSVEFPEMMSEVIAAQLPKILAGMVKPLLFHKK

[1] = molecular target: Tyrosine-protein kinase Fyn (Homo sapiens, UniProt P06241); assay: biochemical; format: cell-based, Insect cells; settings: insect cells;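 also: enzymatic inhibition of Fyn kinase activity measured with Poly(Glu:Tyr) as the phosphorylation substrate; in other assays of this panel Not Active means under 50% inhibition at 10 µM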
[2] = DRUGMATRIX: Phorbol Ester radioligand binding (ligand: [3H] PDBu); format: cell membranes, Mus musculus, ICR, Brain, Membrane; settings: Not Active = under 50% inhibition at 10 µM
[3] = molecular target: T2, Alpha-1B adrenergic receptor (Rattus norvegicus, UniProt P15823); assay: DRUGMATRIX: Alpha-1B adrenergic receptor radioligand binding (ligand: prazosin); format: cell membranes, Wistar, Liver, Membrane; settings: Not Active = under 50% inhibition at 10 µM
T2 sequence (P15823 whole entry): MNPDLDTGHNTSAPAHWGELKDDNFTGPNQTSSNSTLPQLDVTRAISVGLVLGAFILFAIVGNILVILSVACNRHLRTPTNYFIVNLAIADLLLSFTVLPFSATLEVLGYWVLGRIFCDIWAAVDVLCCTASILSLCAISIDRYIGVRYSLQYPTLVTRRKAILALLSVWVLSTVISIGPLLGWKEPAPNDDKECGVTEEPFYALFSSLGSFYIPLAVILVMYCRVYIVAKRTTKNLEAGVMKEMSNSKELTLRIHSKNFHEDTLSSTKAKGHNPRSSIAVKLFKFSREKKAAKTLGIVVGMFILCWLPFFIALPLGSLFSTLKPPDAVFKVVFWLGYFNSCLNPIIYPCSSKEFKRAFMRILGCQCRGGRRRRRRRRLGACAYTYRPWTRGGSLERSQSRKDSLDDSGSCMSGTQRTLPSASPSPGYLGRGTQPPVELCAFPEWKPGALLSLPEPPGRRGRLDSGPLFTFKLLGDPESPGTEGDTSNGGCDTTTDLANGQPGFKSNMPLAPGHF

[4] = molecular target: Sodium-dependent noradrenaline transporter (Homo sapiens, UniProt P23975); assay: DRUGMATRIX: Norepinephrine Transporter radioligand binding (ligand: [125I] RTI-55); format: cell membranes, MDCK, Membrane; settings: mdck; Not Active = under 50% inhibition at 10 µM
[5] = DRUGMATRIX: Glutamate, NMDA, Agonism radioligand binding (ligand: [3H] CGP-39653); format: cell membranes, Rattus norvegicus, Wistar, Cerebral cortex, Membrane; settings: Not Active = under 50% inhibition at 10 µM

Sequence of Tyrosine-protein kinase Fyn (P06241 whole entry): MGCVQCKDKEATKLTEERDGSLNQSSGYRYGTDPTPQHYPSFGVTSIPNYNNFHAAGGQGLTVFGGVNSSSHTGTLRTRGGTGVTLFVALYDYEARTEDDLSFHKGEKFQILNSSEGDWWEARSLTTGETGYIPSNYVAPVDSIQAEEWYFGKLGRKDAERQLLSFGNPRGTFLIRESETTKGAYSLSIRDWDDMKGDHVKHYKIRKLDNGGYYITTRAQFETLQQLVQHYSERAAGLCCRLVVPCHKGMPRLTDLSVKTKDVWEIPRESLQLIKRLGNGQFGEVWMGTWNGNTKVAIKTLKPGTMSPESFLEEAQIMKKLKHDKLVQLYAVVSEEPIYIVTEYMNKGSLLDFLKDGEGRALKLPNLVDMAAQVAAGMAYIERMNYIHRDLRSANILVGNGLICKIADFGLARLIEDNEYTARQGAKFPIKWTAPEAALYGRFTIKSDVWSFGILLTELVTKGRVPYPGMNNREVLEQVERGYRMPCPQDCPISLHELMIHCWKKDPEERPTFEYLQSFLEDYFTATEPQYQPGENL
Sequence of Sodium-dependent noradrenaline transporter (P23975 whole entry): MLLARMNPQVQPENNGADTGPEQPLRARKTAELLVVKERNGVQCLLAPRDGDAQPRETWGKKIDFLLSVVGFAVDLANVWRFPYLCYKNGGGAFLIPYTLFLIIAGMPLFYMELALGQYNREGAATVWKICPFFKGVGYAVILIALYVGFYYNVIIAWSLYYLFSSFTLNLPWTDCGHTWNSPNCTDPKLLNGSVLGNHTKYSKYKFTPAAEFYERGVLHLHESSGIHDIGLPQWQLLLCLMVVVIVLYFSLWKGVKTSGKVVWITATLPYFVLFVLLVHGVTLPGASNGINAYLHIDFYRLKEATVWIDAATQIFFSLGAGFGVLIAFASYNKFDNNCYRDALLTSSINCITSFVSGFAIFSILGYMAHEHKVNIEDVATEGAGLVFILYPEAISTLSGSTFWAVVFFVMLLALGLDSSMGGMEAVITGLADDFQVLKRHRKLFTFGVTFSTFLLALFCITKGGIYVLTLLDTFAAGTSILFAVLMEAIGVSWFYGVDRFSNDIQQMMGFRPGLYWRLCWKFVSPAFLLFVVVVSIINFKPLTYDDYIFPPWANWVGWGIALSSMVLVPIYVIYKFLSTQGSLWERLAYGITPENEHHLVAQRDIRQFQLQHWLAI

SMILES | IC50 (Progesterone receptor) | IC50 [1] | IC50 [2] | Ki [2] | IC50 [3] | IC50 [4] | IC50 [5] | Ki [5] | IC50 ([3]; read-out: IC50) | Ki ([3]; read-out: Ki) | IC50 (Progesterone receptor; read-out: IC50) | Ki (Progesterone receptor; read-out: Ki)
CN1[C@@H]2CC[C@H]1C[C@@H](OC(=O)C(CO)c1ccccc1)C2 (stereo not given in full) [ATROPINE] | Not Active | Not Active | Not Active | Not Active | Not Active | Not Active | Not Active | Not Active | – | – | – | –
CC(C(=O)O)c1ccc2oc(-c3ccc(Cl)cc3)nc2c1 (stereo not given) [BENOXAPROFEN] | Not Active | Not Active | Not Active | Not Active | Not Active | Not Active | Not Active | Not Active | – | – | – | –
COc1ccc2cc3[n+](cc2c1OC)CCc1cc2c(cc1-3)OCO2.[Cl-] [BERBERINE CHLORIDE] | Not Active | Not Active | Not Active | Not Active | Not Active | Not Active | Not Active | Not Active | – | – | – | –
O=C(O)CCNC(=O)c1ccccc1 [BETAMIPRON] | Not Active | Not Active | Not Active | Not Active | Not Active | Not Active | Not Active | Not Active | – | – | – | –
CC(=O)Oc1ccc(C(c2ccc(OC(C)=O)cc2)c2ccccn2)cc1 [BISACODYL] | Not Active | Not Active | Not Active | Not Active | Not Active | Not Active | Not Active | Not Active | – | – | – | –
Cc1cc2c(OCC(CNC(C)(C)C)OC(=O)c3ccccc3)cccc2[nH]1 (stereo not given) [BOPINDOLOL] | Not Active | Not Active | Not Active | Not Active | Not Active | Not Active | Not Active | Not Active | – | – | – | –
Brc1c(NC2=NCCN2)ccc2nccnc12 [BRIMONIDINE] | Not Active | Not Active | Not Active | Not Active | Not Active | Not Active | Not Active | Not Active | – | – | – | –
CN(C)[C@@H]1C(O)=C(C(N)=O)C(=O)[C@@]2(O)C(O)=C3C(=O)c4c(O)ccc(Cl)c4[C@@](C)(O)[C@H]3C[C@@H]12 [CHLORTETRACYCLINE] | Not Active | Not Active | Not Active | Not Active | Not Active | Not Active | Not Active | Not Active | – | – | – | –
CN/C(=N\CCSCc1nc[nH]c1C)NC#N [CIMETIDINE] | Not Active | Not Active | Not Active | Not Active | Not Active | Not Active | Not Active | Not Active | – | – | – | –
COc1cc(N)c(Cl)cc1C(=O)NC1CCN(CCCOc2ccc(F)cc2)CC1OC (stereo not given) [CISAPRIDE] | Not Active | Not Active | Not Active | Not Active | – | Not Active | Not Active | Not Active | 16 nM | 8.65 nM | – | –
CCC(=O)O[C@]1(C(=O)CCl)[C@@H](C)C[C@H]2[C@@H]3CCC4=CC(=O)C=C[C@]4(C)[C@@]3(F)[C@@H](O)C[C@@]21C [CLOBETASOL PROPIONATE] | – | Not Active | Not Active | Not Active | Not Active | Not Active | Not Active | Not Active | – | – | 12 nM | 1.52 nM
CC(C)NCC(O)COc1cccc2[nH]ccc12 (stereo not given) [PINDOLOL] | – | Not Active | Not Active | Not Active | Not Active | Not Active | Not Active | Not Active | – | – | – | –
COc1cc2nc(N3CCN(C(=O)c4ccco4)CC3)nc(N)c2cc1OC [PRAZOSIN] | Not Active | Not Active | Not Active | Not Active | – | Not Active | Not Active | Not Active | – | – | – | –
CCCNCC(O)COc1ccccc1C(=O)CCc1ccccc1 (stereo not given) [PROPAFENONE] | Not Active | Not Active | Not Active | Not Active | – | – | Not Active | Not Active | – | – | – | –
